Biological target: T1, COX-2 (cyclooxygenase-2) (Homo sapiens, UniProt P35354)
T1 construct: gene PTGS2
T1 sequence (P35354 18-604): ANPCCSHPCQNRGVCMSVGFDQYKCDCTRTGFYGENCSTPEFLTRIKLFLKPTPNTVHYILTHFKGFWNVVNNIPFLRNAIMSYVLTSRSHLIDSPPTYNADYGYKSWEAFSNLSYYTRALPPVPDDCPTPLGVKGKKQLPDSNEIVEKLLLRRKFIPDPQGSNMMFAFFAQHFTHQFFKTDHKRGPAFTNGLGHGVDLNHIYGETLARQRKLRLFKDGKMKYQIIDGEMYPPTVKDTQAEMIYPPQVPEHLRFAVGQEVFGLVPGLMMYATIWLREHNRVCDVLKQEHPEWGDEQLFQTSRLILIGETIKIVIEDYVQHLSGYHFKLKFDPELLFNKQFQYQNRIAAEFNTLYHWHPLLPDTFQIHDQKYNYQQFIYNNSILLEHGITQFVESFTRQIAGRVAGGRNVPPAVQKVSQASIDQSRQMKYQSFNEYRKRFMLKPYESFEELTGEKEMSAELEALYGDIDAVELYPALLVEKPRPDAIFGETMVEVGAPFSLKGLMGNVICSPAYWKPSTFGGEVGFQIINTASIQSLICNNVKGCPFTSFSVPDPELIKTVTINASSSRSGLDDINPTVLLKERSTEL
Test: COX-2 enzyme assay with ELISA kit (SEA699Hu)
Type: biochemical

O=C(OCc1ccc(Cl)cc1)c1ccccc1NCc1ccc(Cl)cc1 [CCAB, 4-chlorobenzyl 2-((4-chlorobenzyl)amino)benzoate]
IC50: 410 nM

— article PMC10466176, “Sequential analysis for identification of byproduct from N-benzylation reaction: wound healing and anti-inflammatory potential of the byproduct 4-chlorobenzyl 2-((4-chlorobenzyl)amino)benzoate” (RSC Advances, 2023)
